Source: ChEMBL document CHEMBL2417368, “Structure-based discovery of novel amide-containing nicotinamide phosphoribosyltransferase (nampt) inhibitors” (J Med Chem, 2013)
The source made the active and inactive calls. The calls are words filed in the database; no cut-off is given here.

Assays:
A2780 = experiment: cells; settings: Homo sapiens, A2780, 72 h
Liver [1] = experiment: (§1) Metabolic stability in mouse liver microsomes assessed as compound remaining at 1 uM after 30 mins LC-MS analysis; format: ADME, Microsome; settings: microsomes, 0.5 h, 1 µM, BLD = below limit of detection
[2] = (§2) Metabolic stability in human liver microsomes assessed as compound remaining at 1 uM after 30 mins LC-MS analysis; format: ADME, Microsome; settings: liver microsomes, read-out: Stability
[3] = biological target: Nicotinamide phosphoribosyltransferase (Homo sapiens, UniProt P43490)
Chain of Nicotinamide phosphoribosyltransferase (P43490 whole entry): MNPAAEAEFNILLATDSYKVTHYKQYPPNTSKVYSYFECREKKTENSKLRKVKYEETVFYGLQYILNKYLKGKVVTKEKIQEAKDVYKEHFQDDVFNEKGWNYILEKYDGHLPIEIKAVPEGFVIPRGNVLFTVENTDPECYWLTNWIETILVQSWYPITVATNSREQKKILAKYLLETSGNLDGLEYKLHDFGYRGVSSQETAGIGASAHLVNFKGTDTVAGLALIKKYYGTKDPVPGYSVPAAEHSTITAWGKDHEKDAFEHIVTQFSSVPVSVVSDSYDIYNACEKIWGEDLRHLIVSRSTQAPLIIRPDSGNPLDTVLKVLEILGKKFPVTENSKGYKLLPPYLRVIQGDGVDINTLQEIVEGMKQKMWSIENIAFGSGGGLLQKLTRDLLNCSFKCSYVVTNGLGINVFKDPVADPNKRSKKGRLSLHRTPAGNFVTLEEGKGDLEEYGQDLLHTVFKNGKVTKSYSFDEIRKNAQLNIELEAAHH

[4] = as §1; format: ADME, Microsome; settings: liver microsomes, read-out: Stability
[5] = Fraction unbound in mouse plasma at 5 uM after 4 hrs by LC-MS/MS analysis; format: ADME, cell-free
[6] = Intrinsic clearance in human hepatocytes at 1 uM after 10 mins by LC-MS/MS analysis; format: ADME, cell-based, Hepatocyte; settings: read-out: CLH
[7] = Intrinsic clearance in CD-1 mouse hepatocytes at 1 uM after 10 mins by LC-MS/MS analysis; format: ADME, cell-based, Hepatocyte; settings: read-out: CLH
[8] = Fraction unbound in human plasma at 5 uM after 4 hrs by LC-MS/MS analysis; format: ADME, cell-free
Liver [9] = experiment: as §2; format: ADME, Microsome; settings: microsomes, 0.5 h, 1 µM, BLD = below limit of detection
in vitro = settings: dog, MDCK
[10] = AUC (infinity) in NCR nude mouse at 10 mg/kg, po; format: ADME, organism-based; design: time infinity, dose 10 mg/kg, route oral; settings: plasma
[11] = Tmax in NCR nude mouse at 10 mg/kg, po; format: ADME, organism-based; design: dose 10 mg/kg, route oral; settings: in vivo
[12] = Oral bioavailability in NCR nude mouse at 10 mg/kg; format: ADME, organism-based; settings: in vivo
HT-1080 = experiment: Antiproliferative activity against human HT1080 cells assessed as cell viability after 72 hrs; format: functional, cell-based; settings: HT-1080, 72 h
U-251 [13] = experiment: Antiproliferative activity against human U251 cells assessed as cell viability after 72 hrs by SRB assay; format: functional, cell-based; settings: U-251, 72 h
[14] = Cmax in NCR nude mouse at 10 mg/kg, po; format: ADME, organism-based; design: dose 10 mg/kg, route oral; settings: in vivo
PC-3 = experiment: Antiproliferative activity against human PC3 cells assessed as cell viability after 72 hrs; format: functional, cell-based; settings: PC-3, 72 h
MIA PaCa-2 = experiment: Antiproliferative activity against human MIAPaCa2 cells assessed as cell viability after 72 hrs; format: functional, cell-based; settings: MIA PaCa-2, 72 h
U-251 [15] = experiment: Antitumor activity against human U251 cells xenografted in athymic nu/nu mouse assessed as reduction in tumor size at 25 mg/kg, po QD for 7 days measured on day 13; format: functional, organism-based; design: dose 25 mg/kg
[16] = Volume of distribution at steady state in NCR nude mouse at 5 mg/kg, iv; format: ADME, organism-based; design: dose 5 mg/kg, route intravenous; settings: in vivo, read-out: Vdss
HCT-116 = experiment: Antiproliferative activity against human HCT116 cells assessed as cell viability after 72 hrs; format: functional, cell-based; settings: HCT-116, 72 h
[17] = Clearance in NCR nude mouse plasma at 5 mg/kg, iv; format: ADME, organism-based; design: dose 5 mg/kg, route intravenous
Mus musculus = experiment: Toxicity in human U251 cells xenografted in athymic nu/nu mouse assessed as change in body weight at 25 mg/kg, po QD for 7 days; format: organism-based, U-251; design: dose 25 mg/kg, route oral; settings: in vivo, 168 h

Compound | IC50 (A2780) [nM] | remaining at 0.5 h, 1 µM [2] [%] | IC50 [3] [nM] | remaining at 0.5 h, 1 µM [4] [%] | fraction unbound at 4 h, 5 µM [5] | CLint scaled at 1 µM [6] [mL/min/kg] | CLint scaled at 1 µM [7] [mL/min/kg] | fraction unbound at 4 h, 5 µM [8] | Papp A→B at 10 µM (in vitro) [×10⁻⁶ cm/s] | further results
O=C(NCc1ccc(S(=O)(=O)N2CCCCC2)cc1)c1ccc2ncsc2c1 | > 10000 | 24 | 37 |  |  |  |  |  |  | Stability (Liver [1]): BLD
O=C(NCc1ccc(S(=O)(=O)N2CCCCC2)cc1)c1cc2ccncc2[nH]1 | 1700 | 50 | 1000 |  |  |  |  |  |  | Stability (Liver [1]): BLD
O=C(NCc1ccc(S(=O)(=O)c2cc(F)cc(F)c2)cc1)c1cc2ccncc2s1 |  | 41 |  | 32 | 0.011 | 16 | 78 | 0.009 |  | 
O=C(NCc1ccc(S(=O)(=O)N2CCCCC2)cc1)c1cc2cccnc2s1 | > 10000 |  | 8 |  |  |  |  |  |  | Stability (Liver [1]): BLD; Stability (Liver [9]): BLD
O=C(NCc1ccc(S(=O)(=O)c2cccc(C(F)(F)F)c2)cc1)c1cc2ccncc2s1 | 1 | 43 |  | 35 | 0.002 | 14 | 73 | 0.004 | 8 | 
O=C(NCc1ccc(S(=O)(=O)c2cc(F)cc(F)c2)cc1)c1cc2cnccc2[nH]1 |  | 82 |  | 63 |  | 7 | 70 |  | 12 | 
O=C(NCc1ccc(S(=O)(=O)N2CCCCC2)cc1)c1cc2cnccc2s1 | 1600 | 15 | 150 |  |  |  |  |  |  | Stability (Liver [1]): BLD
O=C(NCc1ccc(S(=O)(=O)c2ccc(N3CCOCC3)nc2)cc1)c1cnc2nccn2c1 | 2 | 86 | 1 | 86 | 0.12 | 6 | 69 | 0.028 | 0.3 | 
N#CN=C(NCCCCCCOc1ccc(Cl)cc1)Nc1ccncc1 [CHS-828] |  | 61 |  | 63 | 0.005 | 7 | 21 | 0.005 | 10 | 
O=C(NCc1ccc(S(=O)(=O)c2ccc(N3CCOCC3)nc2)cc1)c1cc2ccncc2o1 | 1 | 51 | 3 | 42 | 0.017 | 14 | 48 | 0.005 | 15 | 
O=C(NCc1ccc(S(=O)(=O)c2ccc(N3CCOCC3)nc2)cc1)c1cc2cnccc2[nH]1 | 1 | 75 | 7 | 72 | 0.015 |  | 57 | 0.011 | 1 | 
O=C(NCc1ccc(S(=O)(=O)c2cc(F)cc(F)c2)cc1)c1cnc2nccn2c1 | 3 | 78 |  | 71 | 0.133 | 6 | 74 | 0.122 | 5 | 
O=C(NCc1ccc(S(=O)(=O)c2cc(F)cc(F)c2)cc1)c1ccc2nccn2c1 | 2 | 53 |  | 39 | 0.067 | 10 | 42 | 0.06 | 12 | AUC(0-inf) [10]: 3.06 µM·h; Tmax [11]: 15 min; bioavailability [12]: 41.1%; IC50 (HT-1080): 2.1 nM; IC50 (U-251 [13]): 1.8 nM; Cmax [14]: 1210 nM; IC50 (PC-3): 2.7 nM; IC50 (MIA PaCa-2): 7.4 nM; Activity (U-251 [15]): Active; Vd [16]: 6.7 L/kg; IC50 (HCT-116): 2 nM; clearance [17]: 52.4 mL/min/kg; Activity (Mus musculus): Non-toxic
O=C(NCc1ccc(S(=O)(=O)c2cccc(C(F)(F)F)c2)cc1)c1cc2ccncc2o1 | 3 | 48 | 5 | 64 | 0.011 | 10 | 25 | 0.01 | 13 | 
O=C(NCc1ccc(S(=O)(=O)c2ccc(N3CCOCC3)nc2)cc1)c1ccc2nccn2c1 | 1 | 65 | 6 | 75 | 0.025 | 10 | 43 | 0.012 | 3 | 
O=C(/C=C/c1cccnc1)NCCCCC1CCN(C(=O)c2ccccc2)CC1 [DAPORINAD] |  | 46.7 |  | 7.7 | 0.033 | 15 | 67 | 0.007 | 15 | 
Cn1c(C(=O)NCc2ccc(S(=O)(=O)c3ccccc3)cc2)cc2ccncc21 | > 10000 | 71 | 410 |  |  |  |  |  |  | Stability (Liver [1]): BLD
O=C(NCc1ccc(S(=O)(=O)c2cccc(C(F)(F)F)c2)cc1)c1cc2cnccc2[nH]1 | 3 | 81 | 8 | 49 | 0.007 | 10 | 60 | 0.006 | 5 | 
O=C(NCc1ccc(S(=O)(=O)c2ccccc2)cc1)c1ccc2ccncc2c1 | > 10000 | 46 | 610 | 3.3 |  |  |  |  |  | 
